Experiment: xn = mol fraction of the nth substance listed
Settings: 100 kPa, Liquid; for viscosity: Concentric cylinders viscometry; for mass density: Vibrating tube method

CCCCCCCCCO [nonan-1-ol] + O=C1CCCCC1
Settings | mass density [kg/m3] | viscosity [mPa·s]
293.15 K, x2 = 0 | 827.5 | 11.41
293.15 K, x2 = 0.0813 | 833.2 | 9.78
293.15 K, x2 = 0.1582 | 839 | 8.31
293.15 K, x2 = 0.2378 | 845.5 | 6.98
293.15 K, x2 = 0.3573 | 856.3 | 5.42
293.15 K, x2 = 0.4381 | 864.3 | 4.61
293.15 K, x2 = 0.5589 | 877.9 | 3.69
293.15 K, x2 = 0.6488 | 889.3 | 3.2
293.15 K, x2 = 0.724 | 899.9 | 2.96
293.15 K, x2 = 0.8481 | 919.6 | 2.55
293.15 K, x2 = 0.9411 | 936.8 | 2.33
298.15 K, x2 = 0 | 824 | 9.43
298.15 K, x2 = 0.0813 | 829.6 | 8.15
298.15 K, x2 = 0.1582 | 835.2 | 6.94
298.15 K, x2 = 0.2378 | 841.5 | 5.92
298.15 K, x2 = 0.3573 | 852.1 | 4.68
298.15 K, x2 = 0.4381 | 860 | 4.01
298.15 K, x2 = 0.5589 | 873.3 | 3.21
298.15 K, x2 = 0.6488 | 884.6 | 2.8
298.15 K, x2 = 0.724 | 895 | 2.59
298.15 K, x2 = 0.8481 | 914.4 | 2.24
298.15 K, x2 = 0.9411 | 931.2 | 2.11
303.15 K, x2 = 0 | 820.5 | 7.86
303.15 K, x2 = 0.0813 | 825.9 | 6.78
303.15 K, x2 = 0.1582 | 831.5 | 5.87
303.15 K, x2 = 0.2378 | 837.7 | 5.03
303.15 K, x2 = 0.3573 | 848.1 | 4.03
303.15 K, x2 = 0.4381 | 855.9 | 3.49
303.15 K, x2 = 0.5589 | 869.1 | 2.87
303.15 K, x2 = 0.6488 | 880.2 | 2.53
303.15 K, x2 = 0.724 | 890.5 | 2.37
303.15 K, x2 = 0.8481 | 909.6 | 2.08
303.15 K, x2 = 0.9411 | 926.3 | 1.95
308.15 K, x2 = 0 | 817.1 | 6.61
308.15 K, x2 = 0.0813 | 822.4 | 5.73
308.15 K, x2 = 0.1582 | 827.9 | 4.96
308.15 K, x2 = 0.2378 | 834 | 4.31
308.15 K, x2 = 0.3573 | 844.3 | 3.51
308.15 K, x2 = 0.4381 | 852 | 3.08
308.15 K, x2 = 0.5589 | 865 | 2.57
308.15 K, x2 = 0.6488 | 876 | 2.3
308.15 K, x2 = 0.724 | 886.2 | 2.16
308.15 K, x2 = 0.8481 | 905.2 | 1.93
308.15 K, x2 = 0.9411 | 921.7 | 1.79
313.15 K, x2 = 0 | 813.6 | 5.6
313.15 K, x2 = 0.0813 | 818.9 | 4.85
313.15 K, x2 = 0.1582 | 824.2 | 4.2
313.15 K, x2 = 0.2378 | 830.2 | 3.68
313.15 K, x2 = 0.3573 | 840.3 | 3.04
313.15 K, x2 = 0.4381 | 847.9 | 2.71
313.15 K, x2 = 0.5589 | 860.8 | 2.33
313.15 K, x2 = 0.6488 | 871.6 | 2.13
313.15 K, x2 = 0.724 | 881.8 | 2.02
313.15 K, x2 = 0.8481 | 900.6 | 1.81
313.15 K, x2 = 0.9411 | 917.1 | 1.67
318.15 K, x2 = 0 | 810.1 | 4.78
318.15 K, x2 = 0.0813 | 815.3 | 4.18
318.15 K, x2 = 0.1582 | 820.5 | 3.67
318.15 K, x2 = 0.2378 | 826.4 | 3.22
318.15 K, x2 = 0.3573 | 836.4 | 2.66
318.15 K, x2 = 0.4381 | 844 | 2.37
318.15 K, x2 = 0.5589 | 856.7 | 2.03
318.15 K, x2 = 0.6488 | 867.4 | 1.85
318.15 K, x2 = 0.724 | 877.5 | 1.77
318.15 K, x2 = 0.8481 | 896.3 | 1.59
318.15 K, x2 = 0.9411 | 912.8 | 1.5
323.15 K, x2 = 0 | 806.5 | 4.1
323.15 K, x2 = 0.0813 | 811.6 | 3.61
323.15 K, x2 = 0.1582 | 816.8 | 3.2
323.15 K, x2 = 0.2378 | 822.7 | 2.84
323.15 K, x2 = 0.3573 | 832.6 | 2.4
323.15 K, x2 = 0.4381 | 840.1 | 2.17
323.15 K, x2 = 0.5589 | 852.8 | 1.9
323.15 K, x2 = 0.6488 | 863.6 | 1.75
323.15 K, x2 = 0.724 | 873.7 | 1.67
323.15 K, x2 = 0.8481 | 892.5 | 1.49
323.15 K, x2 = 0.9411 | 908.9 | 1.4

O=C1CCCCC1 [cyclohexanone] + CCCCCCCCO
Settings | mass density [kg/m3] | viscosity [mPa·s]
293.15 K, x1 = 0.0803 | 831.3 | 7.76
293.15 K, x1 = 0.1519 | 837.4 | 6.62
293.15 K, x1 = 0.2388 | 845.2 | 5.58
293.15 K, x1 = 0.3427 | 855.4 | 4.48
293.15 K, x1 = 0.4378 | 865.6 | 3.72
293.15 K, x1 = 0.5606 | 880 | 2.97
293.15 K, x1 = 0.6498 | 891.6 | 2.57
293.15 K, x1 = 0.7407 | 904.5 | 2.33
293.15 K, x1 = 0.8422 | 920.4 | 2.28
293.15 K, x1 = 0.9377 | 937.4 | 2.25
293.15 K, x1 = 1 | 948.8 | 2.3
298.15 K, x1 = 0.0803 | 827.7 | 6.52
298.15 K, x1 = 0.1519 | 833.6 | 5.65
298.15 K, x1 = 0.2388 | 841.3 | 4.8
298.15 K, x1 = 0.3427 | 851.2 | 3.91
298.15 K, x1 = 0.4378 | 861.2 | 3.29
298.15 K, x1 = 0.5606 | 875.4 | 2.66
298.15 K, x1 = 0.6498 | 886.8 | 2.32
298.15 K, x1 = 0.7407 | 899.5 | 2.13
298.15 K, x1 = 0.8422 | 915.1 | 2.07
298.15 K, x1 = 0.9377 | 931.4 | 2.04
298.15 K, x1 = 1 | 943.1 | 2.09
303.15 K, x1 = 0.0803 | 824.1 | 5.54
303.15 K, x1 = 0.1519 | 829.8 | 4.87
303.15 K, x1 = 0.2388 | 837.4 | 4.17
303.15 K, x1 = 0.3427 | 847.2 | 3.44
303.15 K, x1 = 0.4378 | 857 | 2.94
303.15 K, x1 = 0.5606 | 871.1 | 2.42
303.15 K, x1 = 0.6498 | 882.3 | 2.16
303.15 K, x1 = 0.7407 | 894.9 | 1.97
303.15 K, x1 = 0.8422 | 910.4 | 1.9
303.15 K, x1 = 0.9377 | 926.6 | 1.87
303.15 K, x1 = 1 | 938.2 | 1.91
308.15 K, x1 = 0.0803 | 820.5 | 4.73
308.15 K, x1 = 0.1519 | 826.1 | 4.16
308.15 K, x1 = 0.2388 | 833.6 | 3.61
308.15 K, x1 = 0.3427 | 843.2 | 3.03
308.15 K, x1 = 0.4378 | 852.9 | 2.6
308.15 K, x1 = 0.5606 | 866.8 | 2.15
308.15 K, x1 = 0.6498 | 877.9 | 1.94
308.15 K, x1 = 0.7407 | 890.4 | 1.79
308.15 K, x1 = 0.8422 | 905.9 | 1.74
308.15 K, x1 = 0.9377 | 922 | 1.72
308.15 K, x1 = 1 | 933.5 | 1.75
313.15 K, x1 = 0.0803 | 816.8 | 4.07
313.15 K, x1 = 0.1519 | 822.4 | 3.6
313.15 K, x1 = 0.2388 | 829.7 | 3.12
313.15 K, x1 = 0.3427 | 839.2 | 2.63
313.15 K, x1 = 0.4378 | 848.8 | 2.3
313.15 K, x1 = 0.5606 | 862.5 | 1.95
313.15 K, x1 = 0.6498 | 873.6 | 1.75
313.15 K, x1 = 0.7407 | 886 | 1.64
313.15 K, x1 = 0.8422 | 901.3 | 1.6
313.15 K, x1 = 0.9377 | 917.3 | 1.57
313.15 K, x1 = 1 | 928.8 | 1.6
318.15 K, x1 = 0.0803 | 813.1 | 3.51
318.15 K, x1 = 0.1519 | 818.6 | 3.11
318.15 K, x1 = 0.2388 | 825.8 | 2.73
318.15 K, x1 = 0.3427 | 835.2 | 2.32
318.15 K, x1 = 0.4378 | 844.7 | 2.04
318.15 K, x1 = 0.5606 | 858.4 | 1.75
318.15 K, x1 = 0.6498 | 869.3 | 1.6
318.15 K, x1 = 0.7407 | 881.6 | 1.5
318.15 K, x1 = 0.8422 | 896.9 | 1.46
318.15 K, x1 = 0.9377 | 912.9 | 1.44
318.15 K, x1 = 1 | 924.4 | 1.46
323.15 K, x1 = 0.0803 | 809.5 | 3.03
323.15 K, x1 = 0.1519 | 814.9 | 2.73
323.15 K, x1 = 0.2388 | 822.1 | 2.42
323.15 K, x1 = 0.3427 | 831.5 | 2.09
323.15 K, x1 = 0.4378 | 841 | 1.85
323.15 K, x1 = 0.5606 | 854.6 | 1.6
323.15 K, x1 = 0.6498 | 865.5 | 1.46
323.15 K, x1 = 0.7407 | 877.9 | 1.37
323.15 K, x1 = 0.8422 | 893.2 | 1.34
323.15 K, x1 = 0.9377 | 909.2 | 1.32
323.15 K, x1 = 1 | 920.7 | 1.34
